Entries after “also recorded” stand apart in the source; their conditions may differ.
What was measured:
[1] = tested on: GST-PLCγ; test: In vitro kinase assay of immunoprecipitated mutant αPDGFRs with exogenous substrate; format: biochemical; details: 292 immunoprecipitates, [32P]-γ ATP, 30° C., 5 min
Method: Mutant αPDGFRs were selectively immunoprecipitated with the 292 antibody, and samples representing 2×10^5 cells from 292 antibodies were subjected to an in vitro kinase assay. Immunoprecipitates were preincubated with 2 μg of GST protein for 10 min at 0° C., then 2 μg of Glutathione S-transferase fusion phospholipase C-gamma (GST-PLCγ, an exogenous substrate, 10 μCi of γ-[^32P] ATP (DuPont NEN Research Products, Boston, Mass.), and universal kinase buffer (UKB; 20 mM Pipes, pH 7.0, 10 mM MnCl2, 20 μg/ml aprotinin) were added. The samples were incubated at 30° C. for 5 min. The proteins were separated by 7.5% sodium dodecyl sulfate-polyacrylamide gel electrophoresis (SDS-PAGE), the gel was dried, and the radiolabeled protein was detected by autoradiography.

[2] = tested on: F cells; test: Collagen gel contraction assay of F cells expressing αPDGFR mutants; format: cell-based, mouse; details: PDGF-BB (50 ng/ml), 48 hours
Method: (§1) The contraction assay was based on a previously described reference, Skuta, G. et al. (1999) J. Biol. Chem. 274:30163, with the following modifications. Fα cells were suspended in 1.5 mg/ml of neutralized collagen I (Cohesion vitrogen 100, Palo Alto, Calif.) at a density of 10^6 cells/ml, and were transferred into the 24-well plate (Falcon, Franklyn Lakes, N.J.) that had been preincubated with phosphate-buffer saline (PBS) with 5 mg/ml of bovine serum albumin (BSA) overnight. The gel was solidified by incubating at 37° C. for 90 minutes, and then the well was flooded with DMEM+5 mg/ml of BSA supplemented with an amount of vitreous such that the final concentration of vitreous in the culture medium was 1, 5 or 20%. The gels were incubated at 37° C. with 5% CO2. The initial gel diameter was 15 mm. The media was replaced every 24 hours and the gel diameter was measured after 48 hours. The extent of contraction was calculated by subtracting the diameter of the well at 48 hours from the initial diameter (15 mm). Each experimental condition was assayed in triplicate, and at least three independent experiments were performed. Unpaired t-test was performed to detect statistic difference in contraction assay.
To determine the signaling pathways that drive contraction, cells expressing the αPDGFR mutants were subjected to the collagen gel contraction assay described above. Accordingly, F cells expressing the indicated αPDGFRs were subjected to the collagen gel assay in the presence of buffer, PDGF-BB (50 ng/ml), TGFβ1 (1 ng/ml), or FBS (10%). The data presented are the mean±standard deviation measured at the 48 hours time point. Each experimental condition was assayed in triplicate, and at least 3 independent experiments were performed.

[3] = tested on: rabbit eyes; test: Rabbit PVR model: F cells expressing αPDGFR mutants injected into the vitreous; format: in vivo; details: up to 28 days after the surgery
Method: PVR was induced in the rabbit eyes as previously described (Andrews, A. et al. (1999) Invest. Ophthalmol. Vis. Sci. 40:2683 and Nakagawa, M. et al. (1995) Invest. Ophthalmol. Vis. Sci. 36:2388). Briefly, gas vitrectomy was performed by injecting 0.4 ml of expanding perfluoropropane gas (C3F8) into the vitreous cavity 4 mm posterior to the corneal limbus under anesthetical condition. Three days later, the rabbits were anesthetized and the pupils were dilated. 0.1 ml DMEM containing 1×10^5 of RCFs expressing empty vector or αPDGFR mutant were injected into the vitreous cavity together with 0.1 ml of PRP using 30 G needle. Ten rabbits underwent surgery for each cell population expressing the empty vector or the truncated, E587K, T665M, D818N, or V859M αPDGFR mutants. One rabbit in the D818N group died just after the surgery, therefore the total number is 9 for this group. The retinal status was evaluated with an indirect ophthalmoscope fitted with a +30 D fundus lens at 1, 4, 7, 14, 21, and 28 days after the surgery. The PVR was graded from 0 through 5 according to the Fastenberg score. Fastenberg, D. M. et al. (1982) Am. J. Ophthalmol. 93:565. The grading is as follows: 0; no abnormality, 1; vitreous strand, 2; traction of the retina, 3; partial retinal detachment (less than 2 quadrant), 4; extended (more than 2 quadrant) but not total retinal detachment, 5; total retinal detachment. All surgeries were performed under aseptic conditions and pursuant to the regulation of the ARVO Statement for the Use of Animals in Ophthalmic and Vision Research. Only the left eye of each rabbit was used for the experiments.
An important component of PVR is the traction force that is generated when cells of the epiretinal membrane contract. To test if the signaling enzymes that are required for contraction in the in vitro assays also participate in PVR, the cells expressing the various αPDGFR mutants, described in the previous Examples, were assayed in a rabbit PVR model, described above. In this model, rabbits first undergo gas vitrectomy, and then cells are coinjected with […]. The formation of an epiretinal membrane and retinal detachment is observed in living animals over 28 days.
Briefly, PVR was induced by introducing F cells expressing the indicated αPDGFR into the vitreous of the rabbit eyes. The PVR score was evaluated up to 28 days after the surgery according to the classification described above. The mean value and standard error of the scores in a group were indicated. Each group contained 9 or 10 rabbits; the response to parental F cells was previously reported (Andrews et al., supra), and was included here for comparison purposes.

[4] = tested on: SHP-2; test: Co-immunoprecipitation of SHP-2 with αPDGFR mutants in F cells; format: cell-based, mouse; details: 50 ng/ml PDGF-BB, 5 minutes
Method: (§2) The ability of the αPDGFR mutants to undergo ligand dependent tyrosine phosphorylation and to associate with signaling enzymes was then tested. F cells expressing various αPDGFR mutants were grown to subconfluence and serum starved overnight. Cells were either left resting (−) or stimulated with 50 ng/ml PDGF-BB (+) for 5 minutes, and lysed. The αPDGFR was immunoprecipitated with αPDGFR antibody, as described above, and the resulting immunoprecipitates were resolved by 7.5% SDS-PAGE and transferred onto Immobilon. The segment of the blot containing the αPDGFR was first blotted with anti-phosphotyrosine antibodies, then stripped and reprobed with an anti-αPDGFR antibody. Portions of the membrane that contained the proteins of the appropriate molecular mass were immunoblotted for PLCγ, the regulatory subunit of PI3K (p85), or SHP-2. Crude rabbit anti-p85 antibody is from Dr. A. Toker (Beth Israel Hospital/Harvard Medical School, Boston, Mass.). The monoclonal antibodies against PLCγ and SHP-2 were purchased from Upstate Biotechnology Inc.

[5] = tested on: PLCγ; test: Co-immunoprecipitation of PLCγ with αPDGFR mutants in F cells; format: cell-based, mouse; details: 50 ng/ml PDGF-BB, 5 minutes
Method: as §2

[6] = tested on: FCX^2, Fα and Fβ cells; test: Collagen gel contraction assay of cells with no PDGFRs, αPDGFR or βPDGFR; format: cell-based, mouse; details: 50 ng/ml PDGF-BB; 24, 48, 72 hours
Method: as §1, with “The gels were incubated at 37° C. with 5% CO2. The initial gel diameter was 15 mm.” left out, “Each experimental condition was assayed in triplicate, and at least three independent experiments were performed. Unpaired t-test was performed to detect statistic difference in contraction assay.” left out
The experiments described in Example 9 (FIG. 7B) were repeated with cells that express the βPDGFR (Fβ) instead of the αPDGFR, or no PDGFRs (FCX^2). Contraction was scored at the 48 hours time point. […]
To more directly test whether TGFβ could moderate contraction of fibroblasts via the αPDGFR, the response of the three cell lines to purified TGFβ was examined. […] The gel diameter was measured after 24, 48, or 72 hours, and the media was replaced every day.

[7] = target: T1, αPDGFR (Homo sapiens, UniProt P16234); test: Tyrosine phosphorylation of the αPDGFR in TGFβ- or PDGF-treated F cells; format: cell-based; details: Fα cells; 50 ng/ml PDGF-BB 5 minutes or 1 ng/ml TGFβ1 5 minutes to 8 hours
T1 construct: expressed in transfected cells; host or cells: F cells (SV-40 immortalized mouse embryo fibroblasts lacking both PDGFRs), giving Fα
Method: To show the effect of TGFβ on αPDGFR, the tyrosine phosphorylation state of the αPDGFR was assayed in TGFβ-treated cells. The F cells with or without PDGFR were grown to 80% confluent and then starved with DMEM containing 1% FBS for 20 hours. Cells were exposed at 37° C. for 5 minutes to either 50 ng/ml of PDGF-BB; with 1 ng/ml of TGFβ1 for 5 minutes, 1 hour, 2 hours, 4 hours, 6 hours or 8 hours; or were left unstimulated. After treatment the cells were washed twice with H/S (20 mM Hepes, pH 7.4, 150 mM NaCl) and then lysed in EB (10 mM Tris-HCl, pH 7.4, 5 mM EDTA, 50 mM NaCl, 50 mM NaF, 1% Triton-X 100, 0.1% BSA, 20 μg/ml aprotinin, 2 mM Na3VO4, 1 mM phenylmethylsulfonyl fluoride; PMSF). Lysates were centrifuged for 15 minutes at 13,000×g, the pellet was discarded and the soluble fraction was used as the total cell lysate. The protein concentration was measured using protein assay kit (Pierce, Rockfield, Ill.) following the manufacture's instructions.
Receptors were immunoprecipitated from the soluble fraction with the 27P antibody (described above). Immune complex was bound to formalin-fixed membranes of Staphylococcus aureus, spun through an EB sucrose gradient, and washed twice with EB, then with PAN (10 mM Pipes, pH 7.0, 100 mM NaCl, 1% aprotinin)+0.5% Nonidet P-40 (NP-40), and finally with PAN. The samples were resuspended in PAN before using for kinase assay or western blotting. […]

T1 sequence (P16234 24-1089): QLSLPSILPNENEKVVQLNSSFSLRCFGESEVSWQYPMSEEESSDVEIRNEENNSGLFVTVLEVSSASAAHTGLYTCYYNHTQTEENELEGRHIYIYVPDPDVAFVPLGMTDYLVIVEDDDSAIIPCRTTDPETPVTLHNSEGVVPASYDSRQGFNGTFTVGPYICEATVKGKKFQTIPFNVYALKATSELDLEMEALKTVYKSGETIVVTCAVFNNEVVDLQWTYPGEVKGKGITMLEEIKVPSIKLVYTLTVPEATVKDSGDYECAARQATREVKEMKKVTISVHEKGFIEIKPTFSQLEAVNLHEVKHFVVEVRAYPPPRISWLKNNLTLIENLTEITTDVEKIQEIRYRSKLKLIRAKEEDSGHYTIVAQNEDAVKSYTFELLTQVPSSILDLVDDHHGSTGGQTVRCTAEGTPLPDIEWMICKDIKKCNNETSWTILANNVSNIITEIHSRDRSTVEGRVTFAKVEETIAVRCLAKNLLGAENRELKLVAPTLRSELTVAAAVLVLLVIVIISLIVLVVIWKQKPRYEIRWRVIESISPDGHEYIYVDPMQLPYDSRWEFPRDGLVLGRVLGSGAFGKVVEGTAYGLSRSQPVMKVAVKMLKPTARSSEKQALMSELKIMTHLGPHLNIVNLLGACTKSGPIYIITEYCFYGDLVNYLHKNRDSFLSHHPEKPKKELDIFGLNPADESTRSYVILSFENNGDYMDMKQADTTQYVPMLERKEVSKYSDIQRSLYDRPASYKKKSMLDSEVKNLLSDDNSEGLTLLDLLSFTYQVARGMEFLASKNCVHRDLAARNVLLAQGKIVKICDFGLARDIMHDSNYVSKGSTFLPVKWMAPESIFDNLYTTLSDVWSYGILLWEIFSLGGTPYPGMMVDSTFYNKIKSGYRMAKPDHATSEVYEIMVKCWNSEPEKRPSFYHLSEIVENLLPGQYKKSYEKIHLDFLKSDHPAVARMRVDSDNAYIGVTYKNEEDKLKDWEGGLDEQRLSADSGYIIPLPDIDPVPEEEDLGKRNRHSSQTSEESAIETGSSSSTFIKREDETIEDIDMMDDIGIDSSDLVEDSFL

| Substance | kinase activity towards exogenous substrate GST-PLCγ [1] | PDGF-dependent contraction [2] | potential to induce PVR (PVR score) [3] | further results |
| --- | --- | --- | --- | --- |
| E587K: human αPDGFR point mutant, glutamic acid at position 587 changed to lysine; SEQ ID NO: 4 | comparable to the WT receptor |  |  |  |
| F720: αPDGFR mutant, Tyr to Phe substitution at 720 |  | somewhat reduced response | induced PVR similarly to the WT receptor-expressing cells | recruitment of SHP-2 (Properties) [4]: failed to efficiently associate; also recorded: Fails to recruit SHP-2 |
| F1018: αPDGFR mutant, Tyr to Phe substitution at 1018 |  | severely compromised contraction | significantly reduced | recruitment or activation of PLCγ (Properties) [5]: failed to efficiently associate; also recorded: Fails to recruit or activate |
| PDGF |  |  |  | PDGF-induced contraction [6]: triggered the same extent of contraction of the Fα and Fβ cells; tyrosine phosphorylation of the αPDGFR [7]: greatly increased the receptor's phosphotyrosine content |
| T665M: human αPDGFR point mutant, threonine at position 665 changed to methionine; SEQ ID NO: 6 | more active than the WT receptor |  |  |  |

From US6667173B2, “Nucleic acids encoding platelet derived growth factor-alpha receptors” (The Schepens Eye Research Institute, priority 2000, dated 2003)
